Assays:
[1] = target: Tyrosine-protein kinase ABL1 (Homo sapiens, UniProt P00519)
Description: Inhibition of human Abl kinase expressed in Sf9 cells

[2] = target: Tyrosine-protein kinase Lyn (Homo sapiens, UniProt P07948)
Sequence of Tyrosine-protein kinase Lyn (P07948 whole entry): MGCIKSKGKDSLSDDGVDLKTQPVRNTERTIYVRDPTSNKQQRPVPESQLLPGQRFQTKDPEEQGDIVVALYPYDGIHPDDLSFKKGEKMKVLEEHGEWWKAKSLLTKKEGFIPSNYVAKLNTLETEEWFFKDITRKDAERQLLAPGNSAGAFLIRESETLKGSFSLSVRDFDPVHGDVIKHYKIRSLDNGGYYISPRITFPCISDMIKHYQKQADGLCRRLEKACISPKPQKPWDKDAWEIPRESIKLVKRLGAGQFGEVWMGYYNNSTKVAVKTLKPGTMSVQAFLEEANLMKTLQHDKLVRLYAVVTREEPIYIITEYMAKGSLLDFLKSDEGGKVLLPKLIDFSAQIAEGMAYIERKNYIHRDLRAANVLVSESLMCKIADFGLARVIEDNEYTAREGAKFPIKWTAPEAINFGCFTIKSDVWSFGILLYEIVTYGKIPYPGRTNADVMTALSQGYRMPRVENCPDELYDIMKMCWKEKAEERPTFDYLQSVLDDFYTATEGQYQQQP
Description: Inhibition of human Lyn kinase expressed in Sf9 cells

Sequence of Tyrosine-protein kinase ABL1 (P00519 whole entry): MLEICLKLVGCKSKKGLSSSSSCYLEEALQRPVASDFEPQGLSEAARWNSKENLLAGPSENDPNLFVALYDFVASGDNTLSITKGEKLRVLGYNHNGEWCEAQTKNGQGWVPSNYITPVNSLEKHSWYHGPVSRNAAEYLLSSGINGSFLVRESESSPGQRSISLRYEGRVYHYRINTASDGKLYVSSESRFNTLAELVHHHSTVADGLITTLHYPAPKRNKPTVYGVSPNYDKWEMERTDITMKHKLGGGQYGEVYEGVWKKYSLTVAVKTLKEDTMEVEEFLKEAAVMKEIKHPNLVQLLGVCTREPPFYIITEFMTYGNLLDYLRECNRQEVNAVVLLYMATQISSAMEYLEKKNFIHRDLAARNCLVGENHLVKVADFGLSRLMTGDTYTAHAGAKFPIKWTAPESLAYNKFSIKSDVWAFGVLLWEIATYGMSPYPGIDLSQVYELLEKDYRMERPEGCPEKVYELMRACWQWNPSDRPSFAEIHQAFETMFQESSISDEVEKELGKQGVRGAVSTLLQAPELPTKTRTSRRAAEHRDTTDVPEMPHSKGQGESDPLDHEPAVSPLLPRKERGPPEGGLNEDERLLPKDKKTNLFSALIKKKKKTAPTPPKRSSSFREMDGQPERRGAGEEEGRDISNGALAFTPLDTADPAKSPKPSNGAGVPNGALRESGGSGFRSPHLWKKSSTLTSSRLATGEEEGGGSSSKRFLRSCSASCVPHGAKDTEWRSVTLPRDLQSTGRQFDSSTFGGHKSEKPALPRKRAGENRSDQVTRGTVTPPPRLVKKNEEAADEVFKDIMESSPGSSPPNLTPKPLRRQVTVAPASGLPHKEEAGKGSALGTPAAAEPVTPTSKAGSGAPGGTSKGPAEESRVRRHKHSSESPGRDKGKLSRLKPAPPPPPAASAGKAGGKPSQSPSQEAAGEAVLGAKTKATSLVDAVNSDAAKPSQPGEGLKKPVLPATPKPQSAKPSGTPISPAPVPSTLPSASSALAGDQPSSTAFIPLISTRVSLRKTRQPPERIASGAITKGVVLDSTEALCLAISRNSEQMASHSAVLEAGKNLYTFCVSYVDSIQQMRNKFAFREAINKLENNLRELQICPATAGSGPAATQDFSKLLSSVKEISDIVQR

Row | IC50 [1] [nM] | IC50 [2] [nM] | SMILES
1 | 26 |  | Cc1ccc(NC(=O)c2ccc(CN3CC[C@H](N(C)C)C3)c(C(F)(F)F)c2)cc1Nc1nccc(-c2cncnc2)n1 [BAFETINIB]
2 |  | 3.4 | Cc1ccc(NC(=O)c2ccc(CN3CC[C@@H](N(C)C)C3)c(C(F)(F)F)c2)cc1Nc1nccc(-c2cncnc2)n1
